# Test results as given in PMC9400670, “Establishing the selective phospholipid membrane coordination, permeation and lysis properties for a series of ‘druggable’ supramolecular self-associating antimicrobial amphiphiles” (Chemical Science, 2022).
# Test system: DPH-labelled synthetic vesicles
# Assay: Synthetic vesicle membrane fluidity assay (DPH fluorescence polarisation)
# Details: increasing SSA concentration; polar phospholipid membranes, excluding PC only; 298 K
# Procedure: To further explore the effects of SSAs on physical phospholipid membrane characteristics, membrane fluidity experiments were performed. Here a dye (1,6-diphenyl-1,3,5-hexatriene – DPH) was inserted into the synthetic vesicle membrane to enable the study of increased/decreased membrane fluidity through competitive fluorescence polarisation (FP) measurements. In these studies, FP values are found to decrease with increasing membrane fluidity and vice versa. However, these studies could only be performed with SSAs 1–4 and 7 due to overlapping SSA/DHP fluorescence emission.
# Section 2: General Methods […]
# All solvents and starting materials were purchased from known chemical suppliers or available stores and used without any further purification unless specifically stipulated. […] Fluorescence and fluorescence polarisation measurements were conducted using a Clariostar plate reader and analysed using MARS data analysis […]
# Preparation of calcein loaded vesicles: Lipid films were resuspended in buffer A (70 mM calcein, 10 mM TRIS pH 8.5, 0.5 mM EDTA, 110 mM NaCl, pH adjusted to 6-7) and subjected to 9 freeze-thaw cycles in liquid nitrogen and extruded 20 times through a 200 nm polycarbonate membrane. […] The hydrodynamic dimeter of the lipids was monitored using an Anton Paar LitesizerTM 500 to ensure the separation of free and entrapped calcein. […]
smiles,measurement,value
O=C(O)CNC(=O)Nc1ccc(C(F)(F)F)cc1 [SSA 4],overall change in FP (membrane fluidity),> 10%
